# Assay results reported in US20240025863A1, “SOS1 PROTEIN DEGRADERS, PHARMACEUTICAL COMPOSITIONS THEREOF, AND THEIR THERAPEUTIC APPLICATIONS” (BioTheryX, Inc., priority 2020, published 2024).
# Experiments:
# Format in all cases: cell-based
# [1] = tested on: Lovo cells (G13D); test: Cell viability assay (CellTiter-Glo), Lovo cells; conditions: Homo sapiens, 72 h; Lovo cells, 3 days incubation, CellTiter-Glo luminescence; read-out: Inhibition of Cancerous Cells IC50 Lovo (G13D)
# Description: (§1) H358, H23, SW48, and AsPC-1 cells were cultured in RPMI 1640 media supplemented with 10% fetal bovine serum, streptomycin, and penicillin. Lovo and SW480 cells were cultured in DMEM media supplemented with 10% fetal bovine serum, streptomycin, and penicillin. The cell lines were plated in their respective medium supplemented with 2.5% fetal bovine serum, streptomycin, and penicillin. All cell lines were plated in white walled 96-well plates at 2,000 cells/well or 384-well plates at 500 cells/well, except Lovo, which were plated at 4,000 or 1,000 cells/well, respectively. The cells were incubated in DMSO (control) or a compound for 3 days at 37° C. under 5% CO2. A CELLTITER-GLO® reagent (100 μL) was then added to each well. After a 10 min incubation with shaking, luminescence was measured using an ENVISION® multimode plate reader.
# [2] = tested on: H358 cells (G12C); test: Cell viability assay (CellTiter-Glo), H358 cells; conditions: Homo sapiens, NCI-H358, 72 h; H358 cells, 3 days incubation, CellTiter-Glo luminescence; read-out: Inhibition of Cancerous Cells IC50 H358 (G12C)
# Description: as §1
# [3] = tested on: SW480 cells (G12V); test: Cell viability assay (CellTiter-Glo), SW480 cells; conditions: Homo sapiens, 72 h; SW480 cells, 3 days incubation, CellTiter-Glo luminescence; read-out: Inhibition of Cancerous Cells IC50 SW480 (G12V)
# Description: as §1
# [4] = tested on: SW48 cells (wt); test: Cell viability assay (CellTiter-Glo), SW48 cells; conditions: Homo sapiens, 72 h; SW48 cells, 3 days incubation, CellTiter-Glo luminescence; read-out: Inhibition of Cancerous Cells IC50 SW48 (wt)
# Description: as §1
SMILES,IC50 [1] [nM],IC50 [2] [nM],IC50 [3] [nM],IC50 [4] [nM]
"COc1cc2c(N[C@H](C)c3cccc(Br)c3)nc(C)nc2cc1OCCCCCC(=O)NCc1scc2c1CN(C1CCC(=O)NC1=O)C2=O (stereo partly drawn) [Compound A37, 6-((4-(((R)-1-(3-Bromophenyl)ethyl)amino)-6-methoxy-2-methylquinazolin-7-yl)oxy)-N-((5-(2,6-dioxopiperidin-3-yl)-4-oxo-5,6-dihydro-4H-thieno[3,4-c]pyrrol-1-yl)methyl)-hexanamide]",> 10000,> 10000,> 10000,> 10000
"COc1cc2c(N[C@H](C)c3cccc(Br)c3)nc(C)nc2cc1OCCCCCCCC(=O)NCc1scc2c1CN(C1CCC(=O)NC1=O)C2=O (stereo partly drawn) [Compound A38, 8-((4-(((R)-1-(3-Bromophenyl)ethyl)amino)-6-methoxy-2-methylquinazolin-7-yl)oxy)-N-((5-(2,6-dioxopiperidin-3-yl)-4-oxo-5,6-dihydro-4H-thieno[3,4-c]pyrrol-1-yl)methyl)-octanamide]",6100,6300,6400,7900
"COc1cc2c(N[C@H](C)c3cccc(Br)c3)nc(C)nc2cc1OCCCCCCCCCC(=O)NCc1scc2c1CN(C1CCC(=O)NC1=O)C2=O (stereo partly drawn) [Compound A39, 10-((4-(((R)-1-(3-Bromophenyl)ethyl)amino)-6-methoxy-2-methylquinazolin-7-yl)oxy)-N-((5-(2,6-dioxopiperidin-3-yl)-4-oxo-5,6-dihydro-4H-thieno[3,4-c]pyrrol-1-yl)-methyl)decanamide]",790,680,2600,210
"COc1cc2c(N[C@H](C)c3cccc(Br)c3)nc(C)nc2cc1OCCCCCCCCCCCCCCCC(=O)NCc1scc2c1CN(C1CCC(=O)NC1=O)C2=O (stereo partly drawn) [Compound A49, 16-((4-(((R)-1-(3-Bromophenyl)ethyl)amino)-6-methoxy-2-methylquinazolin-7-yl)oxy)-N-((5-(2,6-dioxopiperidin-3-yl)-4-oxo-5,6-dihydro-4H-thieno[3,4-c]pyrrol-1-yl)methyl)-hexadecanamide]",420,> 10000,2800,670
"COc1cc2c(N[C@H](C)c3cccc(Br)c3)nc(C)nc2cc1OCCCCCCCCN1CCC(c2cc3c(cc2F)C(=O)N(C2CCC(=O)NC2=O)C3)CC1 (stereo partly drawn) [Compound A50, 3-(5-(1-(8-((4-(((R)-1-(3-Bromophenyl)ethyl)amino)-6-methoxy-2-methyl-quinazolin-7-yl)oxy)octyl)piperidin-4-yl)-6-fluoro-1-oxoisoindolin-2-yl)piperidine-2,6-dione]",430,960,470,790
"COc1cc2c(N[C@H](C)c3cccc(Br)c3)nc(C)nc2cc1OCCCCCCCCCCN1CCC(c2cc(F)cc3c2CN(C2CCC(=O)NC2=O)C3=O)CC1 (stereo partly drawn) [Compound A51, 3-(4-(1-(10-((4-(((R)-1-(3-Bromophenyl)ethyl)amino)-6-methoxy-2-methyl-quinazolin-7-yl)oxy)decyl)piperidin-4-yl)-6-fluoro-1-oxoisoindolin-2-yl)piperidine-2,6-dione]",160,390,640,290
"CNCc1ccccc1-c1csc([C@@H](C)Nc2nc(C)nc3cc(OCCCCCCCN4CCC(c5cc(F)cc6c5CN(C5CCC(=O)N(C)C5=O)C6=O)CC4)c(OC)cc23)c1 (stereo partly drawn) [Compound A52, 3-(6-Fluoro-4-(1-(7-((6-methoxy-2-methyl-4-(((R)-1-(4-(2-((methylamino)-methyl)phenyl)thiophen-2-yl)ethyl)amino)quinazolin-7-yl)oxy)heptyl)piperidin-4-yl)-1-oxoisoindolin-2-yl)-1-methylpiperidine-2,6-dione]",42,210,170,170
"CNCc1ccccc1-c1csc([C@H](C)Nc2nc(C)nc3cc(OCCCCCCCN4CCC(c5cc(F)cc6c5CN(C5CCC(=O)N(C)C5=O)C6=O)CC4)c(OC)cc23)c1 (stereo partly drawn) [Compound A53, 3-(6-Fluoro-4-(1-(7-((6-methoxy-2-methyl-4-(((S)-1-(4-(2-((methylamino)-methyl)phenyl)thiophen-2-yl)ethyl)amino)quinazolin-7-yl)oxy)heptyl)piperidin-4-yl)-1-oxoisoindolin-2-yl)-1-methylpiperidine-2,6-dione]",68,230,170,170
"CNCc1ccccc1-c1csc([C@@H](C)Nc2nc(C)nc3c(CCCCCCCN4CCC(c5cc(F)cc6c5CN(C5CCC(=O)NC5=O)C6=O)CC4)c(OC)c(OC)cc23)c1 (stereo partly drawn) [Compound A54, 3-(4-(1-(7-(6,7-Dimethoxy-2-methyl-4-(((R)-1-(4-(2-((methylamino)methyl)-phenyl)thiophen-2-yl)ethyl)amino)quinazolin-8-yl)heptyl)piperidin-4-yl)-6-fluoro-1-oxoisoindolin-2-yl)piperidine-2,6-dione]",130,360,240,200
"COc1cc2c(N[C@H](C)c3cccc(Br)c3)nc(C)nc2cc1OCCCCCN1CCN(C(=O)CNc2cc(F)cc3c2CN(C2CCC(=O)NC2=O)C3=O)CC1 (stereo partly drawn) [Compound A55, 3-(4-((2-(4-(5-((4-(((R)-1-(3-Bromophenyl)ethyl)amino)-6-methoxy-2-methyl-quinazolin-7-yl)oxy)pentyl)piperazin-1-yl)-2-oxoethyl)amino)-6-fluoro-1-oxoisoindolin-2-yl)piperidine-2,6-dione]",640,2000,1800,1400
"CNCc1ccccc1-c1csc([C@H](C)Nc2nc(C)nc3c(CCCCCCCN4CCC(c5cc(F)cc6c5CN(C5CCC(=O)NC5=O)C6=O)CC4)c(OC)c(OC)cc23)c1 (stereo partly drawn) [Compound A56, 3-(4-(1-(7-(6,7-Dimethoxy-2-methyl-4-(((S)-1-(4-(2-((methylamino)methyl)-phenyl)thiophen-2-yl)ethyl)amino)quinazolin-8-yl)heptyl)piperidin-4-yl)-6-fluoro-1-oxoisoindolin-2-yl)piperidine-2,6-dione]",150,360,260,190
"COc1cc2c(N[C@H](C)c3cccc(Br)c3)nc(C)nc2cc1OCCCCN1CCN(C(=O)CNc2cc(F)cc3c2CN(C2CCC(=O)NC2=O)C3=O)CC1 (stereo partly drawn) [Compound A57, 3-(4-((2-(4-(4-((4-(((R)-1-(3-Bromophenyl)ethyl)amino)-6-methoxy-2-methyl-quinazolin-7-yl)oxy)butyl)piperazin-1-yl)-2-oxoethyl)amino)-6-fluoro-1-oxoisoindolin-2-yl)piperidine-2,6-dione]",900,3300,5200,2900
"COc1cc2c(N[C@H](C)c3cccc(Br)c3)nc(C)nc2cc1OCCCCCCCCN1CCC(c2cc(F)cc3c2CN(C2CCC(=O)NC2=O)C3=O)CC1 (stereo partly drawn) [Compound A58, 3-(4-(1-(8-((4-(((R)-1-(3-Bromophenyl)ethyl)amino)-6-methoxy-2-methyl-quinazolin-7-yl)oxy)octyl)piperidin-4-yl)-6-fluoro-1-oxoisoindolin-2-yl)piperidine-2,6-dione]",300,1200,360,420
"COc1cc2c(N[C@H](C)c3cccc(Br)c3)nc(C)nc2cc1OCCCCCCNC(=O)[C@H](CC(C)C)NC(=O)[C@@H](O)[C@H](N)Cc1ccccc1 [Compound B6, (S)-2-((2S,3R)-3-amino-2-hydroxy-4-phenylbutanamido)-N-(6-((4-(((R)-1-(3-bromophenyl)ethyl)amino)-6-methoxy-2-methylquinazolin-7-yl)oxy)hexyl)-4-methylpentanamide]",1000,1200,660,680
"COc1cc2c(N[C@H](C)c3cccc(Br)c3)nc(C)nc2cc1OCCCCCCCCCCNC(=O)[C@H](CC(C)C)NC(=O)[C@@H](O)[C@H](N)Cc1ccccc1 [Compound B8, (S)-2-((2S,3R)-3-Amino-2-hydroxy-4-phenylbutanamido)-N-(10-((4-(((R)-1-(3-bromophenyl)ethyl)amino)-6-methoxy-2-methylquinazolin-7-yl)oxy)decyl)-4-methylpentanamide]",390,1200,550,1000
"COc1ccc(C2=N[C@@H](c3ccc(Cl)cc3)[C@@H](c3ccc(Cl)cc3)N2C(=O)N2CCN(CC(=O)NCCCCCCOc3cc4nc(C)nc(N[C@H](C)c5cccc(Br)c5)c4cc3OC)C(=O)C2)c(OC(C)C)c1 [Compound C1, 2-(4-((4S,5R)-4,5-Bis(4-chlorophenyl)-2-(2-isopropoxy-4-methoxyphenyl)-4,5-dihydro-1H-imidazole-1-carbonyl)-2-oxopiperazin-1-yl)-N-(6-((4-(((R)-1-(3-bromophenyl)-ethyl)amino)-6-methoxy-2-methylquinazolin-7-yl)oxy)hexyl)acetamide]",> 10000,> 10000,> 10000,> 10000
